Experimental data as given in paper PMC12276035, “Novel Para‐Phenylenediamine‐Based Derivatives as Receptor Tyrosine Kinase‐like Orphan Receptor 1 (ROR1) Inhibitors: An In Vitro Preliminary Characterization” (Chemmedchem, 2025).

Tests used:
[1] = system: SH‐SY5Y cells; test: MTT cell viability assay, SH‐SY5Y; assay type: cell-based; conditions: Homo sapiens, cytotoxicity, treated for 72 h, read-out: EC50 ± SD SH‐SY5Y
Description: (§1) Cytotoxicity studies, assessing the activity of the synthetized compounds, were performed only on the molecules showing the best binding profile in the SPR assay. MTT test was performed on two cell lines known for overexpressing ROR1, particularly MTT assays were conducted on JeKo‐1 (human mantle cell lymphoma) and SH‐SY5Y (neuroblastoma), exposing them to different concentrations of compounds for 72 h (Table 2 ). […] This increased effectiveness is likely due to the high expression of the target protein in leukemia and other hematologic malignancies. […] A key structural difference in 18 and 19 compared to active compounds is the absence of the trifluoromethyl group on the aromatic ring. Indeed, the removal of the trifluoromethyl group (18) or the incorporation of an electron‐donating substituent (19) alters the interaction with the ATP‐binding pocket.
The neuroblastoma SH‐SY5Y cells, a human neuroblastoma cell line of neural crest origin, were obtained from ATCC and were grown in DMEM supplemented with 10% v/v fetal bovine serum, 2 mM L‐glutamine, 100 U mL^−1 penicillin, and 0.1 mg mL^−1 streptomycin.
(§2) Cell viability was established by measuring mitochondrial metabolic activity with MTT. In brief, SH‐SY5Y (20 × 10^3 cells/well) and JeKo‐1 (10 × 10^3 cells/well) were plated into 96‐well plates for 24 h, then the compounds (1.56–50 μM) were added. […], cells were replaced with a fresh medium containing 0.5 mg mL^−1 MTT.^[ [45] ^] Cells were incubated for 1–3 h at 37 °C, then the medium was discarded, and formazan blue crystals in the cells dissolved with 100 μL per well of a solution containing isopropanol/HCl 0.1 M. The absorbance was measured at 570 nm using a microplate reader (Multiskan Go, Thermo Scientific, Waltham, MA, USA). Cell viability was expressed as a percentage relative to the untreated cells cultured in medium with 0.1% DMSO and set to 100%, whereas 10% DMSO was used as positive control and set to 0% of viability. The EC50 values were calculated using GraphPad Prism 8.0 software by nonlinear regression of dose‐response inhibition.

[2] = system: JeKo‐1 cells; test: MTT cell viability assay, JeKo‐1; assay type: cell-based; conditions: Homo sapiens, cytotoxicity, treated for 72 h, read-out: EC50 ± SD JeKo‐1
Description: as §1
The JeKo‐1 mantle cell lymphoma (MCL) cell line, derived from mantle cell lymphoma of B‐cell lineage, was obtained from ATCC and was grown in RPMI supplemented with 10% v/v fetal bovine serum, 2 mM L‐glutamine, 100 U mL^−1 penicillin, and 0.1 mg mL^−1 streptomycin.
as §2

[3] = Liver microsomal stability; assay type: in vitro ADME, mouse
Description: To evaluate the metabolic stability of our hit compound and assess its drug‐likeness, we investigated the microsomal stability of 17 by incubating it with mouse liver microsomes. We monitored the loss of the compound over time under CYP‐mediated metabolic pathways (Figure 7A). The natural logarithm of the percentage remaining of the compound, calculated by comparing the concentration at each time point with the t0 sample, was plotted against time, yielding a linear regression (R ^2 = 0.98).
The liver microsomal stability assay of compound 17 was conducted as previously described.^[ [47] ^] Briefly, mouse (CD‐1) liver microsomes (Thermo Fisher Scientific, Bremen, Germany) were used, and the reaction was initiated by the addition of NADPH. The incubation was carried out 37 °C for 15, 30, 45, and 60 min in a Thermomixer comfort (Eppendorf, Hamburg, Germany). The reaction was stopped by the addition of ice‐cold methanol containing IS. Finally, the samples were centrifuged, and the supernatants were injected into the LC‐MS. […] All experiments were performed in triplicate, and results were expressed as the in vitro microsomal half‐life (t 1/2), calculated using the equation t 1/2 = 0.693/b, where b is the slope of the linear regression obtained by plotting the natural logarithm of the remaining parent compound fraction against incubation time.

[4] = Plasma stability assay; assay type: in vitro ADME; conditions: mouse plasma, 120 min, 37 °C
Description: In addition to hepatic metabolism, drugs are also prone to degradation and modification by plasma enzymes, including hydrolases and esterases. Compounds with low plasma stability often show rapid clearance and a short half‐life. […] In this study, we assessed the metabolic stability of compound 17 by incubating it in mouse plasma for 120 min.
The plasma stability of compound 17 was evaluated. Briefly, mouse plasma is equilibrated to 37 °C and biotransformation is initiated by addition of compound solution and mixing. At each specified time point (0, 60, and 120 min), the test compound was extracted using ice‐cold methanol to halt degradation, with the IS added during the quenching phase. The concentration of the test compound was then quantified using LC‐MS. The percentage of the test compound remaining at each time point, relative to the 0 min reference, was recorded. Procaine (low stability) and procainamide (high stability) served as controls. All experiments were conducted in triplicate.

- degradation ([3]; after 60 min with mouse microsomes): ≈ 20%
- half-life ([3]; mouse (CD‐1) liver microsomes, NADPH, 37 °C): ~3.3 h
- compound remaining intact [4]: over 85%
SMILES: O=C(NCc1ccc(-c2ccccc2)cc1)Nc1ccc(NCC2CCNCC2)cc1C(F)(F)F [Compound 17]
- EC50 [1]: 17.7 ± 2.73 µM
- EC50 [2]: 10.3 ± 2.86 µM
